According to patent US9144573B2, “Prostaglandin transporter inhibitors” (Albert Einstein College of Medicine of Yeshiva University, priority 2006, dated 2015):
pKi: −log10 of the molar value. Entries after “also recorded” stand apart in the source; their conditions may differ.

Experiments:
[1] = Degradation of exogenously-administered PGE2; type: in vivo, rats; conditions: 300 μL of 1 mM IV, PGE2 injected ten minutes later
Method: Either 300 μL vehicle (4% DMSO and 4% cremophor in water) or 300 μL of 1 mM T26A was injected into the jugular vein of anesthetized rats (300-325 g weight). Ten minutes later 100 μL of 1 ng/μL PGE2 was injected. One mL blood was withdrawn from the carotid artery at 1, 3, 5, and 10 min after PGE2 injection. PGE2 in blood samples was measured using PGE2 EIA kit from Caymanchem. […] This is also consistent with the FIG. 8 model. Inhibiting PGE2 transport into the cell reduces its intracellular degradation.

[2] = test system: EP4; assay: PGE2 binding to EP4 in membranes of MDCK cells expressing PGT; type: cell-based, human; conditions: 5 μM, 10 minutes at 37° C.
Method: EP4 expression in MDCK cells that constitutively express PGT was tested by determining PGE2 binding to the cells. Wild type MDCK cells and MDCK cells stably expressing PGT were transiently transfected with human cDNA of EP4 (UMR cNDA Resource Center, www.cdna.org). About 30 hours after transfection, the cells were incubated in Waymouth buffer containing 0 and 20 nM of unlabeled PGE2, and either 4% vehicle (DMSO) or 5 μM T26A, for 10 minutes at 37° C. The cells were then washed with PBS buffer and lysed the cells with lysing buffer containing 10 mM TrisHCl, pH, 7.5, 5 mM EDTA, 100 nM okadaic acid, and 20 μM indomethacin. The cells were then harvested and homogenized using a Potter-Elvehiem homogenizer in an ice cold solution containing 10 mM Tris-HCl, pH. 7.4, 1 mM EDTA, 0, 1 mM phenylmethylsulfonyl fluoride, 20 μM indomethacin, then centrifuged the homogenate at 800 g for 5 minutes. The supernatant was transferred to another tube and centrifuged at 19000 rpm for 45 minutes. The supernatant was then discarded and the pellets washed with buffer A containing 20 mM HEPES-NaOH, pH. […] EP4 bound to ^3H-PGE2 were quantified as described by Negishi et al., 1987. Nonspecific binding was determined by using 1000-fold excess of unlabeled PGE2 in the incubation mixture. The specific binding was calculated by subtracting the nonspecific bind value from the total binding value (Nishigaki et al., 1996).

[3] = biological target: T1, prostaglandin transporter (PGT) (Rattus norvegicus, UniProt Q00910); assay: PGE2 uptake by MDCK cells stably expressing PGT; type: cell-based
T1 construct: GFP; expressed in transfected cells
Method: MDCK or 3T3 cells were seeded at 15-20% confluence on 24-well plates. The day on which the cells were seeded was considered day 1. PGE2 uptake experiments were conducted on day 4. All of the PGE2 uptake experiments were conducted at room temperature. On day 4, cells were washed twice with Waymouth buffer (135 mM NaCl, 13 mM H-Hepes, 13 mM Na-Hepes, 2.5 mM CaCl2, 1.2 mM MgCl2, 0.8 mM MgSO4, 5 mM KCl, and 28 mM D-glucose). Then 200 μL of Waymouth buffer containing [^3H]PGE2 was added to each well. At the designated time, the uptake of [^3H]PGE2 was stopped by aspiration of uptake buffer; this was followed by immediate washing twice with 500 μL of chilled Waymouth buffer. Cells were then lysed with 100 μL lysis buffer containing 0.25% SDS and 0.05 N NaOH. 1.5 mL of scintillation solution was added to each well, and intracellular [^3H]PGE2 was counted by MicroBeta Counter.
For preliminary screening of the compounds, 25 μL of Waymouth buffer containing small organic compounds were added to each well; this was immediately followed by the addition of 175 μL of Waymouth buffer containing [^3H]PGE2. In each well, the total volume of uptake medium was 200 μL. Organic compounds were first dissolved in DMSO and then diluted in Waymouth buffer. The percent inhibition of [^3H]PGE2 uptake by compounds was calculated as [(uptakevehicle−uptakeinhibitor)÷(uptakevehicle)]×100.
The initial velocities at various initial extracellular concentrations of PGE2 were determined from the PGE2 uptake in the first 2 minutes; these were linear over the time course of PGE2 uptake. Ki values were obtained by curve fitting the reciprocal of initial velocities of PGE2 uptake versus the reciprocal of extracellular PGE2 concentrations at various concentrations of the inhibitors. At low PGE2 concentrations, the extracellular concentrations were taken as ^3H labeled PGE2, which has a specific activity of 500 μCi/mol. At high concentrations of PGE2, a mixture of ^3H labeled and unlabeled PGE2 was made to a final specific activity of 25 μCi/mol.

[4] = In vivo test of acute T26A toxicity; set-up: species or system mice; conditions: 100 uL intraperitoneal
Method: All mice were male. They received one intraperitoneal injection. The injected volume was 100 uL to all of them, 14 hours after injection, they were all alive, and moved and acted normally.

[5] = Chronic oral tolerability: metabolic cages and post-mortem H&E histology; type: in vivo, mice; conditions: for pathological damage to the gastrointestinal tract: H&E stained tissues
Method: The mice described in FIGS. 17-19 were studied in metabolic cages. Six days after they adjusted to the caged condition on regular diet and water, regular drinking water, or vehicle (2% DMSO and 2% cremophor) in drinking water, or 2 mM T26A in drinking water was administered for 16 days. Their water and food intake, weight body and urine volume were recorded daily. Results are shown graphically in FIG. 20.
FIG. 21 provides results of post-mortem studies on the mice of FIGS. 17-19 administered either regular drinking water, or vehicle (2% DMSO and 2% cremophor) in drinking water, or 2 mM T26A in drinking water for 16 days. At the end of experiments, we isolated tissues from the mice and made H&E stained slides of tissues and examined the tissues microscopically.

[6] = Systemic BP after IV injection in anesthetized WKY and SHR rats; type: in vivo
Method: The effect of T26 IV injections on systemic BP in anesthetized rats of a control strain (WKY) and the Spontaneously Hypertensive Rat (SHR) strain was evaluated.

[7] = Endogenous PGE2 in circulating blood after jugular vein injection; type: in vivo, rats; conditions: 300 μL of 1 mM, blood 10 minutes later
Method: Either 300 μL vehicle (4% DMSO and 4% cremophor in water) or 300 μL of 1 mM T26A was injected into the jugular vein of anesthetized rats (300-325 g weight). One mL of blood was obtained from the carotid artery 10 minutes later, PGE2 in blood samples was measured using PGE2 EIA kit from Caymanchem. […] This finding is consistent with the model advanced in Example 2 (FIG. 8). Since PGT transports PGE2 into the cell, inhibiting PGT would be expected to inhibit removal of PGE2 from blood to be internalized and degraded.

[8] = 2 mM in drinking water, 16 days

[N-]=[N+]=NCCOCCOCCNC(=O)c1ccc(Nc2nc(NCCOCCOCCNC(=O)c3ccccc3)nc(Nc3ccc(O)cc3)n2)cc1 [T26A]
degradation of exogenously-administered PGE2 [1]: inhibited PGE2 degradation; also recorded: reduces the degradation
effect on PGT-induced increase of PGE2 binding to EP4 [2]: abrogates this effect
pKi ([3]; Example 2): 6.52
inhibition at 5 µM ([3]; MDCK, read-out: % Inhib. at 5 μM): 92%
pKi ([3]; Table 2): 6.42
mode of inhibition ([3]; double reciprocal analysis): competitively inhibits
Condition ([4]; 6 mM, 3% DMSO, 3% Cremophor in water): Appeared normal.
Condition ([4]; 25 mM, 5% DMSO, 5% Cremophor in water): More actively than mice #1,; also recorded: More active than mice #1, #4
Condition ([4]; 250 mM in 100% DMSO): Rarely moved for the first
effects on water and food intake, body weight, daily urine volume [5, 8]: did not have any observable effects; also recorded: does not have any apparent effects
pathological damage to the gastrointestinal tract [5, 8]: did not cause any pathological damage
pathological damage to the gastrointestinal tract ([5]; 2 mM in drinking water, 16 days, listed as T26): does not cause any pathological damage
toxicity on chronic oral basis ([5]; doses sufficient to raise plasma and urinary PGE2): non-toxic
systemic blood pressure [6]: reduced the blood pressure of both rats
plasma PGE2 concentrations [7]: greater than two-fold increase; also recorded: increases endogenous PGE2
